Experimental data taken from patent US20110152094A1, “Herbicidal compositions comprising flufenacet” (Bayer CropScience AG, priority 2009, published 2011).

How the values were obtained:
Assay type in all cases: in vivo
[1] = test system: MATCH = Matricaria chamomilla; assay: Greenhouse trial, PE application with different irrigation variations (test method 6); conditions: g of AS/ha: (A) 120, (B) 1200, (A)+(B) 120 + 1200
Method: (§1) In the standard design of the test, seeds of various broad-leaved weed and weed grass biotypes (origins) were sown in a 8-13 cm diameter pot filled with natural soil of a standard field soil (loamy silt; non-sterile) and covered with a covering soil layer of about 1 cm. The pots were then cultivated in a greenhouse (12-16 h of light, temperature day 20-22° C., night 15-18° C.) until the time of application. The pots were treated on a laboratory track sprayer with spray liquors comprising the compositions according to the invention, mixtures of the prior art or components used individually. Application of the active compounds or active compound combinations formulated as WG, WP, EC or otherwise was carried out at the appropriate growth stages of the plants. The application rate for the spray application was 100-600 l of water/ha. After the treatment, the plants were returned to the greenhouses.
(§2) About 3 weeks after the application, the soil action or/and foliar action was assessed visually according to a scale of 0-100% in comparison to an untreated comparative group: 0%=no noticeable effect compared to the untreated comparative group; 100%=full effect compared to the untreated comparative group.
(§3) (notes: the term “seeds” also includes vegetative propagation forms such as, for example, rhizome pieces; abbreviations used: h light=hours of illumination, g of AS/ha=gram of active substance per hectare, l/ha=liter per hectare, S=sensitive, R=resistant) • 1. Pre-emergence action against weeds: seeds of various broad-leaved weed and weed grass biotypes (origins) were sown in a 8-13 cm diameter pot filled with natural soil of a standard field soil (loamy silt; non-sterile) and covered with a covering soil layer of about 1 cm. The pots were then cultivated in a greenhouse (12-16 h of light, temperature day 20-22° C., night 15-18° C.) until the time of application. The pots were treated at the BBCH stage 00-10 of the seeds/plants on a laboratory track sprayer with spray liquors comprising the compositions according to the invention, mixtures or components used individually, as WG, WP, EC or other formulations. The application rate for the spray application was 100-600 l of water/ha. After the treatment, the plants were returned to the greenhouses and, when required, treated with fertilizer and watered. • 2. Post-emergence action against weeds: seeds of various broad-leaved weed and weed grass biotypes (origins) were sown in a 8-13 cm diameter pot filled with natural soil of a standard field soil (loamy silt; non-sterile) and covered with a covering soil layer of about 1 cm. The pots were then cultivated in a greenhouse (12-16 h of light, temperature day 20-22° C., night 15-18° C.) until the time of application. The pots were treated at various BBCH stages between 11-25 of the seeds/plants, i.e. generally between two to three weeks after the start of the cultivation, on a laboratory track sprayer with spray liquors comprising the compositions according to the invention, mixtures or components used individually, as WG, WP, EC or other formulations. The application rate for the spray application was 100-600 l of water/ha. After the treatment, the plants were returned to the greenhouses and, when required, treated with fertilizer and watered. • 3. Selective pre-emergence action: seeds of various crop species (origins) were sown in a 8-13 cm diameter pot filled with natural soil of a standard field soil (loamy silt; non-sterile) and covered with a covering soil layer of about 1 cm. The pots were then cultivated in a greenhouse (12-16 h of light, temperature day 20-22° C., night 15-18° C.) until the time of application. The pots were treated at the BBCH stage 00-10 of the seeds/plants on a laboratory track sprayer with spray liquors comprising the compositions according to the invention, mixtures or components used individually, as WG, WP, EC or other formulations. The application rate for the spray application was 100-600 l of water/ha. […]

AVEFA = Avena fatua = assay: Greenhouse trial, pre-sowing application 7 days prior to sowing (test method 5); conditions: g of AS/ha: (A) 90, (B) 1200, (A)+(B) 90 + 1200
Method: as §1, §2
(§4) (notes: the term “seeds” also includes vegetative propagation forms such as, for example, rhizome pieces; abbreviations used: h light=hours of illumination, g of AS/ha=gram of active substance per hectare, l/ha=liter per hectare, S=sensitive, R=resistant) • 1. Pre-emergence action against weeds: seeds of various broad-leaved weed and weed grass biotypes (origins) were sown in a 8-13 cm diameter pot filled with natural soil of a standard field soil (loamy silt; non-sterile) and covered with a covering soil layer of about 1 cm. The pots were then cultivated in a greenhouse (12-16 h of light, temperature day 20-22° C., night 15-18° C.) until the time of application. The pots were treated at the BBCH stage 00-10 of the seeds/plants on a laboratory track sprayer with spray liquors comprising the compositions according to the invention, mixtures or components used individually, as WG, WP, EC or other formulations. The application rate for the spray application was 100-600 l of water/ha. After the treatment, the plants were returned to the greenhouses and, when required, treated with fertilizer and watered. • 2. Post-emergence action against weeds: seeds of various broad-leaved weed and weed grass biotypes (origins) were sown in a 8-13 cm diameter pot filled with natural soil of a standard field soil (loamy silt; non-sterile) and covered with a covering soil layer of about 1 cm. The pots were then cultivated in a greenhouse (12-16 h of light, temperature day 20-22° C., night 15-18° C.) until the time of application. The pots were treated at various BBCH stages between 11-25 of the seeds/plants, i.e. generally between two to three weeks after the start of the cultivation, on a laboratory track sprayer with spray liquors comprising the compositions according to the invention, mixtures or components used individually, as WG, WP, EC or other formulations. The application rate for the spray application was 100-600 l of water/ha. After the treatment, the plants were returned to the greenhouses and, when required, treated with fertilizer and watered. • 3. […]

[2] = test system: HORVW = Hordeum vulgare, winter barley; assay: as above; conditions: g of AS/ha: (A) 90, (B) 1200, (A)+(B) 90 + 1200
Method: as §1, §2, §4

[3] = test system: MATCH = Matricaria chamomilla; assay: as above; conditions: g of AS/ha: (A) 90, (B) 1200, (A)+(B) 90 + 1200
Method: as §1, §2, §4

[4] = test system: TRZAW = Triticum aestivum, winter wheat; assay: Greenhouse trial, PE application at different sowing depths (test method 9); conditions: g of AS/ha: (A) 120, (B) 1200, (A)+(B) 120 + 1200
Method: as §1, §2, §3

STEME = Stellaria media [5] = assay: as above; conditions: g of AS/ha: (A) 120, (B) 1200, (A)+(B) 120 + 1200
Method: as §1, §2, §3

[6] = test system: HORVW = Hordeum vulgare, winter barley; assay: as above; conditions: g of AS/ha: (A) 120, (B) 1200, (A)+(B) 120 + 1200
Method: as §1, §2, §3

LOLPE = Lolium perenne [7] = assay: as above; conditions: g of AS/ha: (A) 120, (B) 1200, (A)+(B) 120 + 1200
Method: as §1, §2, §3

[8] = test system: HORVW = Hordeum vulgare, winter barley; assay: Greenhouse trial, selective pre-emergence (PE) action on crop plant (test method 3); conditions: PE application, g of AS/ha: (A) 90, (B) 1200, (A)+(B) 90 + 1200
Method: as §1
as §2, with “group. […]” for “group.”

STEME = Stellaria media [9] = assay: Greenhouse trial, post-emergence (PO) action against weeds (test method 2); conditions: PO application; g of AS/ha: (A) 120, (B) 1200, (A)+(B) 120 + 1200; about 3 weeks after application
Method: as §1, §2, §3

VIOAR = Viola arvensis = assay: as above; conditions: PO application; g of AS/ha: (A) 120, (B) 1200, (A)+(B) 120 + 1200; about 3 weeks after application
Method: as §1, §2, §3

LOLPE = Lolium perenne [10] = assay: as above; conditions: PO application; g of AS/ha: (A) 120, (B) 1200, (A)+(B) 120 + 1200; about 3 weeks after application
Method: as §1, §2, §3

## CCC(CC)Nc1c([N+](=O)[O-])cc(C)c(C)c1[N+](=O)[O-] [(B) pendimethalin, N-(1-ethylpropyl)-3,4-dimethyl-2,6-dinitrobenzenamine]
[1]; irrigation from above
  activity MATCH (visual assessment, scale 0-100% vs untreated): 30%
[1]; irrigation from below
  activity MATCH (visual assessment, scale 0-100% vs untreated): 18%
AVEFA = Avena fatua
  activity AVEFA (visual assessment, scale 0-100% vs untreated): 70%
[2]
  activity on crop plant HORVW (visual assessment, scale 0-100% vs untreated): 40%
[3]
  activity MATCH (visual assessment, scale 0-100% vs untreated): 0%
[4]; sowing depth 5 mm
  activity on crop plant TRZAW, sowing depth 5 mm (visual assessment, scale 0-100% vs untreated): 45%
[4]; sowing depth 20 mm
  activity on crop plant TRZAW, sowing depth 20 mm (visual assessment, scale 0-100% vs untreated): 10%
STEME = Stellaria media [5]; sowing depth 5 mm
  activity STEME, sowing depth 5 mm (visual assessment, scale 0-100% vs untreated): 50%
STEME = Stellaria media [5]; sowing depth 20 mm
  activity STEME, sowing depth 20 mm (visual assessment, scale 0-100% vs untreated): 70%
[6]; sowing depth 5 mm
  activity on crop plant HORVW, sowing depth 5 mm (visual assessment, scale 0-100% vs untreated): 25%
[6]; sowing depth 20 mm
  activity on crop plant HORVW, sowing depth 20 mm (visual assessment, scale 0-100% vs untreated): 0%
LOLPE = Lolium perenne [7]; sowing depth 5 mm
  activity LOLPE, sowing depth 5 mm (visual assessment, scale 0-100% vs untreated): 30%
LOLPE = Lolium perenne [7]; sowing depth 20 mm
  activity LOLPE, sowing depth 20 mm (visual assessment, scale 0-100% vs untreated): 10%
[8]
  activity on crop plant HORVW (visual assessment, scale 0-100% vs untreated): 50%
STEME = Stellaria media [9]
  activity STEME (visual assessment, scale 0-100% vs untreated): 30%
VIOAR = Viola arvensis
  activity VIOAR (visual assessment, scale 0-100% vs untreated): 30%
LOLPE = Lolium perenne [10]
  activity LOLPE (visual assessment, scale 0-100% vs untreated): 0%
